In patent US20240207286A1, “ASBT INHIBITORS IN THE TREATMENT OF RENAL DISEASES” (Albireo AB, priority 2022, published 2024):

Legend:
[1] = test system: BDL mice; assay: Long-term effect on cholemic nephropathy in bile duct ligated mice, 6 weeks (Example 3); type: in vivo, mice (C57BL/6n)
Method: The long-term effect of Compound 1 on kidney injury in BDL mice was studied by histology, clinical chemistry and intravital imaging.
[…] […] On day 0, animals underwent bile duct ligation or sham surgery. Compound 1 was administered orally by gavage twice per day. Spontaneous urine samples were collected before BDL as well as on day 1 and weeks 1, 2, 3, 4, 5, and 6 after BDL by cannulation of the urinary bladder. Blood, urine, bile and tissue samples were collected at the end (week 6) of the experiment.

[2] = test system: BDL mice; assay: Short-term effect of ASBT inhibition on urinary bile acid excretion in BDL mice (Example 2); type: in vivo, mice (C57BL/6n); settings: female BDL mice; 15, 30, 60 or 120 mg/kg p.o. twice daily for 5 days (day 7-11); all treated groups
Method: The short-term effect of oral administration of Compound 1 to BDL mice on the urinary excretion of bile acids was evaluated.
Female mice (C57BL/6n) were used. After completion of quarantine and acclimatization period, animals were randomized based on body weight into experimental groups (n=4-7 mice in each). On day 0, animals underwent bile duct ligation. Compound 1 was administered orally by gavage twice per day. Spontaneous urine samples were collected before BDL and on days 7, 8, 9, 10, 11 and 12 after BDL by cannulation of the urinary bladder, and the concentration of bile acids in urine was determined.

[3] = test system: BDL mice; assay: Therapeutic time window in BDL mice, 28 days treatment (Example 4); type: in vivo, mice (C57BL/6n); settings: 60 mg/kg p.o. twice daily for 28 days
Method: The effect of the time period before start of treatment with Compound 1 on kidney injury in BDL mice was evaluated.
Male mice (C57BL/6n) were used. After completion of quarantine and acclimatization period, animals were randomized based on body weight into experimental groups (n=7 mice per group). On day 0, animals underwent bile duct ligation or sham surgery. From day 3, 21, 42 or 63, animals were treated for 28 days with either vehicle or with Compound 1 at a dose of 60 mg/kg, as shown in Table 4 below. Compound 1 was administered p.o. twice per day. The animals were weighed every day. Blood, urine, bile and tissue samples were collected at the end of the experiment.

[4] = target: T1, hIBAT (Homo sapiens, UniProt Q12908); assay: hIBAT potency (IC50); type: cell-based
T1 sequence (Q12908 1-348): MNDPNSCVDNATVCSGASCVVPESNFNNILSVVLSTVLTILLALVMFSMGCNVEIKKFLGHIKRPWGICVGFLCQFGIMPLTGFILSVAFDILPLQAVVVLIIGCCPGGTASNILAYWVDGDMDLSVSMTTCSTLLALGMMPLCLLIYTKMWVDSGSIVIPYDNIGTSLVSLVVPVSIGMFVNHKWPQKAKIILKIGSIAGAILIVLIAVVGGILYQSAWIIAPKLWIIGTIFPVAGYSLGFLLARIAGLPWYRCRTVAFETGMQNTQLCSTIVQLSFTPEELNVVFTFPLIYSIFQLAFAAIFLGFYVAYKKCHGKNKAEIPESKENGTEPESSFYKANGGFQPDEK
Method: (§1) ASBT inhibitor compounds 1 to 5 were used in the experiments described herein. Values were determined using the assays described in e.g. WO 2020/161217.

[5] = test system: BDL mice; assay: Comparison of ASBT inhibitors in BDL mice, 19 days treatment (Example 5); type: in vivo, mice (C57BL/6n); settings: male BDL mice; for serum bile acids / urine bile acids: p.o. once daily for 19 days, Compound 1 60 mg/kg, Compound 2 3 and 10 mg/kg; for urinary NGAL: p.o. once daily, after treatment for 18 days
Method: Male mice (C57BL/6n) were used. After completion of quarantine and acclimatization period, animals were randomized based on body weight into experimental groups (n=12 mice per bile duct ligation group along with 5 sham operated controls). On day 0, animals underwent bile duct ligation or sham surgery. The ASBT inhibitors were administered p.o. once daily. The animals were weighed every day. At day 21, blood samples were taken 2 and 6 hours after the final dose. At day 24, animals were sacrificed and samples (urine and blood; liver, kidney, heart and spleen tissues) were collected and analysed.

[6] = Bioavailability in mice; settings: C57BL/6, mouse, in vivo
Method: as §1

[7] = Caco-2 permeability; type: in vitro ADME; settings: human; for Papp A→B: A2B; for Papp B→A: B2A
From the text: Some ASBT inhibitors may show improved or optimal permeability. The permeability may be measured in Caco2 cells, and values are given as Papp (apparent permeability) values in cm/s. In some embodiments, the permeability is between about 0.01×10^−6 cm/s and about 50×10^−6 cm/s, such as between about 0.05×10^−6 cm/s and about 40×10^−6 cm/s, or such as between about 0.1×10^−6 cm/s and about 30×10^−6 cm/s. In some embodiments, the permeability is greater than at least about 0.1×10^−6 cm/s, such as greater than about 0.2×10^−6 cm/s, such as greater than about 0.4×10^−6 cm/s, such as greater than about 0.7×10^−6 cm/s, such as greater than about 1.0×10^−6 cm/s, such as greater than about 2×10^−6 cm/s, such as greater than about 3×10^−6 cm/s, such as greater than about 5×10^−6 cm/s, such as greater than about 7×10^−6 cm/s, such as greater than about 10×10^−6 cm/s, such as greater than about 15×10^−6 cm/s.
as §1

[8] = test system: BDL mice; assay: Comparison of ASBT inhibitors in BDL mice, 5 days treatment (Example 6); type: in vivo, mice (C57BL/6n); settings: male BDL mice; 10 mg/kg p.o. once daily for 5 days
Method: Male mice (C57BL/6n) were used. After completion of quarantine and acclimatization period, animals were randomized based on body weight into experimental groups (n=10 mice per bile duct ligation group). On day 1, animals underwent bile duct ligation. The ASBT inhibitors were administered p.o. once daily. The animals were weighed every day. At day 6, animals were moved to individual cages for cumulative overnight fecal collection (day 6 to 7). At day 8, blood samples were taken 2 and 6 hours after the final dose. Animals were then sacrificed and samples (urine and blood; liver, kidney and ileum tissues) were collected and analysed.

[9] = in vivo; cited from earlier work
[10] = female BDL mice, 60 mg/kg p.o. twice daily for 6 weeks
[11] = male BDL mice, dosing started on Day 3

Q: With `CCCCC1(CC)CN(c2ccccc2)c2cc(SC)c(O/C=C(\F)C(=O)O)cc2S(=O)(=O)C1` (stereo not shown) [Compound 1, (Z)-3-((3-butyl-3-ethyl-7-(methylthio)-1,1-dioxido-5-phenyl-2,3,4,5-tetrahydro-1,5-benzothiazepin-8-yl)oxy)-2-fluoroacrylic acid] as the compound, how does the “body weight loss due to BDL” value [1, 10] read?
A: strongly ameliorated

Q: And the “severe fibrosis and cystic dilatation of renal tubules (histology)” value [1, 10]?
A: antagonized by Compound 1 almost to the levels of control animals without BDL

Q: What about the “urinary BA” value [1, 10] of the same compound?
A: massively increased

Q: And the “urinary KIM-1” value [1, 10]?
A: strongly reduced

Q: And the “urinary NGAL” value [1, 10]?
A: strongly reduced

Q: And the “vascular leakage in kidneys (intravital imaging with Evans blue)” value [1, 10]?
A: completely reversed

Q: And the “mortality in the 6 week-period” value ([1]; female BDL mice, 60 mg/kg p.o. twice daily, about 50% died in BDL-vehicle group)?
A: no mortality

Q: And the “therapeutic efficacy in similarly designed study with male mice” value ([1]; male mice, 6 per group)?
A: confirmed the therapeutic efficacy

Q: What about the “decrease of serum BA” value ([1]; po, 60 mg/kg, 1008 h) of the same compound?
A: about 90%

Q: And the “concentrations of bile acids in urine, fold higher after treatment” value [2]?
A: at least 20 fold

Q: And the body weight loss ([3]; dosing started on Day 21)?
A: reversed body weight loss

Q: What about the renal injury ([3]; dosing started on Day 21) of the same compound?
A: almost completely reversed

Q: What about the body weight loss ([3]; dosing started on Day 42) of the same compound?
A: reversed body weight loss

Q: And the renal injury ([3]; dosing started on Day 42)?
A: partially reversed

Q: And the “effect on renal injury and body weight loss” value ([3]; dosing started on Day 63)?
A: minimal effects

Q: And the body weight loss [3, 11]?
A: reversed body weight loss

Q: What about the renal injury [3, 11] of the same compound?
A: completely prevented

Q: And the IC50 [4]?
A: 21 nM

Q: And the serum bile acids [5]?
A: lower serum bile acids

Q: And the urine bile acids [5]?
A: increase urine bile acids

Q: What about the “urinary NGAL” value [5] of the same compound?
A: lowered urinary NGAL

Q: And the bioavailability [6]?
A: 44%

Q: Which results are given for `CCCCC1(CCCC)CN(c2ccccc2)c2cc(SC)c(OCCC(=O)O)cc2S(=O)(=O)N1` [Compound 2, 3-((3,3-dibutyl-7-(methylthio)-1,1-dioxido-5-phenyl-2,3,4,5-tetrahydro-1,2,5-benzothiadiazepin-8-yl)oxy)propanoic acid]?
A: Papp A→B [7]: 9.2 ×10⁻⁶ cm/s; Papp B→A [7]: 0.9 ×10⁻⁶ cm/s; serum bile acids [5]: lower serum bile acids; urine bile acids [5]: increase urine bile acids; urinary NGAL [5]: lowered urinary NGAL

Q: Which results are given for `CCCCC1(CC)CN(c2ccc(F)cc2)c2cc(SC)c(OCC(=O)O)cc2S(=O)(=O)C1` (stereo not shown) [Compound 5, 2-((3-butyl-3-ethyl-5-(4-fluorophenyl)-7-(methylthio)-1,1-dioxido-2,3,4,5-tetrahydro-1,5-benzothiazepin-8-yl)oxy)acetic acid]?
A: urinary NGAL [8]: significantly reduced; Papp A→B [7]: 8.7 ×10⁻⁶ cm/s; Papp B→A [7]: 12.9 ×10⁻⁶ cm/s; IC50 [4]: 2.4 nM

Q: Which Papp A→B [7] does the source give for `CCCCC1(C)CN(c2ccccc2)c2cc(SC)c(CSCC(=O)O)cc2S(=O)(=O)C1` (stereo not shown) [Compound 3, 2-(((3-butyl-3-methyl-7-(methylthio)-1,1-dioxido-5-phenyl-2,3,4,5-tetrahydro-1,5-benzothiazepin-8-yl)methyl)thio)acetic acid] here?
A: 29.3 ×10⁻⁶ cm/s

Q: What about the Papp B→A [7] of the same compound?
A: 25.3 ×10⁻⁶ cm/s

Q: For `CCCCC1(CCCC)CS(=O)(=O)c2ccc(N(C)C)cc2[C@@H](c2ccc(OCc3ccc(C[N+]45CCN(CC4)CC5)cc3)cc2)[C@H]1O.[Cl-]` [maralixibat, 1-{[4-({4-[(4R,5R)-3,3-dibutyl-7-(dimethylamino)-4-hydroxy-1,1-dioxo-2,3,4,5-tetrahydro-1H-1λ^6-benzothiepin-5-yl]phenoxy}methyl)phenyl]methyl}-1,4-diazabicyclo[2.2.2]octan-1-ium chloride], which “systemic absorption following oral administration” value [9] is on record?
A: less than 10%
